Measurements: US6770597B2, “Benzohydrazide derivatives as herbicides and desiccant compositions containing them” (Ishihara Sangyo Kaisha, Ltd., priority 2002, dated 2004)

Experiments:
Format in all cases: in vivo
[1] = tested on: barnyardgrass (Echinochloa crus-galli, ECHCG); test: Greenhouse herbicide screen, post-emerge application, phytotoxicity rating; conditions: POST emergent, 14 days after application, scale 0-100
Procedure, shortened: (§1)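 Greenhouse pot test with soil-applied or foliar track-sprayer treatment at 15–1000 g ai/ha from acetone solution. Injury, from none (0) to total kill (100), was recorded 14 days after application.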

[2] = tested on: cocklebur (Xanthium strumarium, XANST); test: as above; conditions: POST emergent, 14 days after application, scale 0-100
Procedure, shortened: as §1

[3] = tested on: common ragweed (Ambrosia artemisiifolia L., AMBEL); test: as above; conditions: POST emergent, 14 days after application, scale 0-100
Procedure, shortened: as §1

[4] = tested on: green foxtail (Setaria viridis, SETVI); test: as above; conditions: POST emergent, 14 days after application, scale 0-100
Procedure, shortened: as §1

[5] = tested on: ivyleaf morningglory (Ipomoea hederacea, IPOHE); test: as above; conditions: POST emergent, 14 days after application, scale 0-100
Procedure, shortened: as §1

[6] = tested on: johnsongrass (Sorghum halepense, SORHA); test: as above; conditions: POST emergent, 14 days after application, scale 0-100
Procedure, shortened: as §1

[7] = tested on: lambsquarters (Chenopodium album, CHEAL); test: as above; conditions: POST emergent, 14 days after application, scale 0-100
Procedure, shortened: as §1

[8] = tested on: large crabgrass (Digitaria sanguinalis, DIGSA); test: as above; conditions: POST emergent, 14 days after application, scale 0-100
Procedure, shortened: as §1

[9] = tested on: redroot pigweed (Amaranthus retrofiexus, AMARE); test: as above; conditions: POST emergent, 14 days after application
Procedure, shortened: as §1

[10] = tested on: sicklepod (Cassia obtusifolia, CASOB); test: as above; conditions: POST emergent, 14 days after application, scale 0-100
Procedure, shortened: as §1

[11] = tested on: velvetleaf (Abutilon theophrasti, ABUTH); test: as above; conditions: POST emergent, 14 days after application, scale 0-100
Procedure, shortened: as §1

[12] = tested on: field corn (Zea mays L., var. Dekalb 535, CORN); test: Greenhouse herbicide screen, post-emerge application, crop damage rating; conditions: POST emergent, 14 days after application, scale 0-100
From the text: (§2) A standard greenhouse herbicide activity screening system was used to evaluate the herbicidal efficacy and crop safety of these test compounds. Seven broadleaf weed species including redroot pigweed (Amaranthus retrofiexus, AMARE), velvetleaf (Abutilon theophrasti, ABUTH), sicklepod (Cassia obtusifolia, CASOB), ivyleaf morningglory (Ipomoea hederacea, IPOHE), lambsquarters (Chenopodium album, CHEAL), common ragweed (Ambrosia artemisiifolia L., AMBEL), and cocklebur (Xanthium strumarium, XANST) were used as test species. Four grass weed species including green foxtail (Setaria viridis, SETVI), barnyardgrass (Echinochloa crus-galli, ECHCG), johnsongrass (Sorghum halepense, SORHA), and large crabgrass (Digitaria sanguinalis, DIGSA) were also used. In addition, four crop species, field corn (Zea mays L., var. Dekalb 535, CORN), soybean (Glycine max L., var. Pella 86, SOY), upland rice (Oryza sp., var.Cocodrie, RICE) and wheat (Triticum aestivum L.) were included.
(§3) All plants were grown in 10 cm square plastic pots which were filled with a sandy loam soil mix. For pre-emerge tests, seeds were planted one day prior to application of the test compounds. For post-emerge tests, seeds were planted 8-21 days prior to the test to allow emergence and good foliage development prior to application of the test substances. At the time of the post-emerge application, plants of all species were usually at the 2-3 leaf stage of development.
(§4) All test compounds were dissolved in acetone and applied to the test units in a volume of 187 l/ha. Test materials were applied at rates ranging from 15 g ai/ha to 1000 g ai/ha using a track sprayer equipped with a TJ8001E even flow flat fan spray nozzle. Plants were arranged on a shelf so that the top of the canopy (post-emerge) or top of the soil surface (pre-emerge) was 40-45 cm below the nozzle. Pressurized air was used to force the test solution through the nozzle as it was mechanically advanced (via electrically driven chain drive) over the top of all test plants/pots. This application simulates a typical commercial field herbicide application.
(§5) Pre-emergence tests were top watered immediately after treatment to incorporate the test materials, then routinely top-watered for normal growth. Post-emerge test units were always bottom-watered.
(§6) At 14 days after application of the test materials, phytotoxicity ratings were recorded. A rating scale of 0-100 was used as previously described in Research Methods in Weed Science, 2nd edition, B. Truelove, Ed., Southern Weed Science Society, Auburn University, Auburn, Ala., 1977. Briefly, “0” corresponds to no damage and “100” corresponds to complete death of all plants in the test unit. This scale was used both to determine efficacy against weed species and damage to crop species. Herbicide activity data for various compounds of this invention, which are shown by compound No. in Tables 1-12, are shown in Tables 13 and 14.

[13] = tested on: upland rice (Oryza sp., var.Cocodrie, RICE); test: as above; conditions: POST emergent, 14 days after application, scale 0-100
From the text: as §2, §3, §4, §5, §6

[14] = tested on: barnyardgrass (Echinochloa crus-galli, ECHCG); test: Greenhouse herbicide screen, pre-emerge application, phytotoxicity rating; conditions: PRE emergent, 14 days after application, rating scale 0-100
Procedure, shortened: as §1

[15] = tested on: cocklebur (Xanthium strumarium, XANST); test: as above; conditions: PRE emergent, 14 days after application, rating scale 0-100
Procedure, shortened: as §1

[16] = tested on: common ragweed (Ambrosia artemisiifolia L., AMBEL); test: as above; conditions: PRE emergent, 14 days after application, rating scale 0-100
Procedure, shortened: as §1

[17] = tested on: green foxtail (Setaria viridis, SETVI); test: as above; conditions: PRE emergent, 14 days after application, rating scale 0-100
Procedure, shortened: as §1

[18] = tested on: ivyleaf morningglory (Ipomoea hederacea, IPOHE); test: as above; conditions: PRE emergent, 14 days after application, rating scale 0-100
Procedure, shortened: as §1

[19] = tested on: johnsongrass (Sorghum halepense, SORHA); test: as above; conditions: PRE emergent, 14 days after application, rating scale 0-100
Procedure, shortened: as §1

[20] = tested on: lambsquarters (Chenopodium album, CHEAL); test: as above; conditions: PRE emergent, 14 days after application, rating scale 0-100
Procedure, shortened: as §1

[21] = tested on: large crabgrass (Digitaria sanguinalis, DIGSA); test: as above; conditions: PRE emergent, 14 days after application, rating scale 0-100
Procedure, shortened: as §1

[22] = tested on: redroot pigweed (Amaranthus retrofiexus, AMARE); test: as above; conditions: PRE emergent, 14 days after application, rating scale 0-100
Procedure, shortened: as §1

[23] = tested on: sicklepod (Cassia obtusifolia, CASOB); test: as above; conditions: PRE emergent, 14 days after application, rating scale 0-100
Procedure, shortened: as §1

[24] = tested on: velvetleaf (Abutilon theophrasti, ABUTH); test: as above; conditions: PRE emergent, 14 days after application, rating scale 0-100
Procedure, shortened: as §1

[25] = tested on: field corn (Zea mays L., var. Dekalb 535, CORN); test: Greenhouse herbicide screen, pre-emerge application, crop damage rating; conditions: PRE emergent, 14 days after application, rating scale 0-100
From the text: as §2, §3, §4, §5, §6

[26] = tested on: upland rice (Oryza sp., var.Cocodrie, RICE); test: as above; conditions: PRE emergent, 14 days after application, rating scale 0-100
From the text: as §2, §3, §4, §5, §6

SMILES: CC1CCCC(C)N1NC(=O)c1cc(-n2c(=O)cc(C(F)(F)F)n(C)c2=S)c(F)cc1Cl (stereo not shown) [Compound 1-15]
- phytotoxicity rating ECHCO ([1]; 63 g ai/ha): 50
- phytotoxicity rating ECHCO ([1]; 250 g ai/ha): 80
- phytotoxicity rating XANST ([2]; 63 g ai/ha): 100
- phytotoxicity rating XANST ([2]; 250 g ai/ha): 100
- phytotoxicity rating AMBEL ([3]; 63 g ai/ha): 80
- phytotoxicity rating AMBEL ([3]; 250 g ai/ha): 95
- phytotoxicity rating SETVI ([4]; 63 g ai/ha): 20
- phytotoxicity rating SETVI ([4]; 250 g ai/ha): 55
- phytotoxicity rating IPOHE ([5]; 63 g ai/ha): 75
- phytotoxicity rating IPOHE ([5]; 250 g ai/ha): 100
- phytotoxicity rating SORHA ([6]; 63 g ai/ha): 0
- phytotoxicity rating SORHA ([6]; 250 g ai/ha): 30
- phytotoxicity rating CHEAL ([7]; 63 g ai/ha): 98
- phytotoxicity rating CHEAL ([7]; 250 g ai/ha): 100
- phytotoxicity rating DIGSA ([8]; 63 g ai/ha): 10
- phytotoxicity rating DIGSA ([8]; 250 g ai/ha): 10
- phytotoxicity rating AMARE ([9]; 63 g ai/ha, scale 0-100 (0 no damage, 100 complete death)): 90
- phytotoxicity rating AMARE ([9]; 250 g ai/ha, scale 0-100): 100
- phytotoxicity rating CASOB ([10]; 63 g ai/ha): 70
- phytotoxicity rating CASOB ([10]; 250 g ai/ha): 75
- phytotoxicity rating ABUTH ([11]; 63 g ai/ha): 100
- phytotoxicity rating ABUTH ([11]; 250 g ai/ha): 100
- crop damage rating CORN ([12]; 63 g ai/ha): 40
- crop damage rating CORN ([12]; 250 g ai/ha): 60
- crop damage rating RICE ([13]; 63 g ai/ha): 0
- crop damage rating RICE ([13]; 250 g ai/ha): 30
- phytotoxicity rating ECHCG ([14]; 63 g ai/ha): 75
- phytotoxicity rating ECHCG ([14]; 250 g ai/ha): 100
- phytotoxicity rating XANST ([15]; 63 g ai/ha): 75
- phytotoxicity rating XANST ([15]; 250 g ai/ha): 100
- phytotoxicity rating AMBEL ([16]; 63 g ai/ha): 100
- phytotoxicity rating AMBEL ([16]; 250 g ai/ha): 100
- phytotoxicity rating SETVI ([17]; 63 g ai/ha): 100
- phytotoxicity rating SETVI ([17]; 250 g ai/ha): 100
- phytotoxicity rating IPOHE ([18]; 63 g ai/ha): 100
- phytotoxicity rating IPOHE ([18]; 250 g ai/ha): 100
- phytotoxicity rating SORHA ([19]; 63 g ai/ha): 100
- phytotoxicity rating SORHA ([19]; 250 g ai/ha): 100
- phytotoxicity rating CHEAL ([20]; 63 g ai/ha): 100
- phytotoxicity rating CHEAL ([20]; 250 g ai/ha): 100
- phytotoxicity rating DIGSA ([21]; 63 g ai/ha): 100
- phytotoxicity rating DIGSA ([21]; 250 g ai/ha): 100
- phytotoxicity rating AMARE ([22]; 63 g ai/ha): 100
- phytotoxicity rating AMARE ([22]; 250 g ai/ha): 100
- phytotoxicity rating CASOB ([23]; 63 g ai/ha): 45
- phytotoxicity rating CASOB ([23]; 250 g ai/ha): 90
- phytotoxicity rating ABUTH ([24]; 63 g ai/ha): 100
- phytotoxicity rating ABUTH ([24]; 250 g ai/ha): 100
- crop damage rating CORN ([25]; 63 g ai/ha): 25
- crop damage rating CORN ([25]; 250 g ai/ha): 100
- crop damage rating RICE ([26]; 63 g ai/ha): 55
- crop damage rating RICE ([26]; 250 g ai/ha): 70
